Key:
transferase enzyme = target: T1, transferase enzyme (Escherichia coli, UniProt P17443); assay: Scintillation proximity assay of the transferase alone, with membranes of E. coli AMA1004 ΔponB::SpcR and pre-formed Lipid I (Example 4); type: biochemical; details: Tunicamycin 10 μg/ml present, 37° C., 5 min, after subtracting 0% reaction readings
T1 sequence (P17443 1-355): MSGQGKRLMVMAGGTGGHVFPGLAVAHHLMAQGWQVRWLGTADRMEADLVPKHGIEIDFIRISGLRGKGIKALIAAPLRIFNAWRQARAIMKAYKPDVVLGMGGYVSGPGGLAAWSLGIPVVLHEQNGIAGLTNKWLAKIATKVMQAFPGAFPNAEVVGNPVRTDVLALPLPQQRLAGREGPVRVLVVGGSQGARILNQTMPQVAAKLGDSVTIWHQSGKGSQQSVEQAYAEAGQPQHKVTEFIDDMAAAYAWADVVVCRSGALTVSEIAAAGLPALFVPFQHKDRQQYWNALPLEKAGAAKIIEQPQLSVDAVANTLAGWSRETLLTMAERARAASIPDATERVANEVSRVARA
Procedure: Microbiol., (1985), 131, 2839-2845. The plate was incubated for 20 min at 37° C.
(ii) Tunicamycin was then added to a final concentration of 10 μg/ml, followed by a test compound (e.g. Vancomycin or Nisin) of varying concentration in dimethyl sulphoxide. Nisin and Vancomycin are known antagonists of the transferase enzyme.
(iii) Then to the reaction well, in a 5 μl volume, the substrate for the transferase was added: 2.5 μM tritiated UDP-N-acetyl glucosamine (0.5 μCi per well). The microtitre plate was incubated for 5 min at 37° C.
(iv) The reaction was terminated by diluting out the radiolabel i.e. by addition of 25 μl of 200 μM unlabelled UDP-GlcNAc.

[1] = test system: translocase and transferase enzymes; type: biochemical, Escherichia coli; details: 100 μM test compound; E. coli AMA1004 membranes; 37° C., 30 min; after subtracting 0% reaction readings
Procedure: (§1) (i) The wells of a microtitre plate were individually filled with a total volume of 25 μl of a reaction mixture comprising an aqueous buffer solution of 50 mM HEPES-ammonia (N-[2-Hydroxyethyl]piperazine-N′-[2-ethanesulfonic acid]) (pH 7.5), and 10 mM magnesium chloride 15 μM UDP-MurNAc-L-alanine-γ-D-glutamic acid-m-diaminopimelic acid-D-alanine-D-alanine, 2.5 μM tritiated UDP-N-acetyl glucosamine (0.2 μCi per well), 6 μg of Escherichia coli AMA1004 cell membranes prepared as described below and a solution of test compound (e.g. Tunicamycin, Vancomycin) of varying concentration in 4% dimethylsulphoxide.
(§2) Four wells of the microtitre plate were used as controls: two wells contained no UDP-N-acetylmuramylpentapeptide (0% reaction controls) and a further two wells contained no test compound (100% reaction controls).
(§3) The microtitre plate was incubated at 37° C. for 30 min and thereafter 5 μl of ethylenediaminetetraacetic acid (EDTA) was added to give a final EDTA concentration of 15 mM.
(§4) (ii) After addition of the EDTA, 170 μl of an aqueous suspension of wheatgerm agglutinin-coated scintillation proximity assay beads comprising 500 μg beads in a solution of HEPES-ammonia, pH 7.5, was added to each well such that the final concentration of HEPES-ammonia was 50 mM.
(§5) The plate was left for 3 hours/overnight at room temperature before being counted in the “Microbeta Trilux” counter.

[2] = target: T2, translocase and transferase enzymes (Escherichia coli, UniProt P0A6W3); type: biochemical; details: 6 μg/ml test compound; E. coli AMA1004 membranes; 37° C., 30 min; after subtracting 0% reaction readings
T2 sequence (P0A6W3 1-360): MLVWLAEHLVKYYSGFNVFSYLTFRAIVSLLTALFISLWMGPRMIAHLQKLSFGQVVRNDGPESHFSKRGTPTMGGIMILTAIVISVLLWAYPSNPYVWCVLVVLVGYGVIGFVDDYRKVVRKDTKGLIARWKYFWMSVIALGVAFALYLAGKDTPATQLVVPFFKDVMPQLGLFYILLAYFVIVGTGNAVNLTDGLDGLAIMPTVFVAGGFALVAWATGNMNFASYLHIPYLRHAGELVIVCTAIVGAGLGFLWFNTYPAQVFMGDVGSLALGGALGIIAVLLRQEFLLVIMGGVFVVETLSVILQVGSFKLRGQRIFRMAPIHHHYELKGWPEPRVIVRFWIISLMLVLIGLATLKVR
Procedure: as §1, §2, §3, §4, §5

Compound: CN[C@H](CC(C)C)C(=O)N[C@H]1C(=O)N[C@@H](CC(N)=O)C(=O)N[C@H]2C(=O)N[C@H]3C(=O)N[C@H](C(=O)N[C@H](C(=O)O)c4cc(O)cc(O)c4-c4cc3ccc4O)[C@H](O)c3ccc(c(Cl)c3)Oc3cc2cc(c3O[C@@H]2O[C@H](CO)[C@@H](O)[C@H](O)[C@H]2O[C@H]2C[C@](C)(N)[C@H](O)[C@H](C)O2)Oc2ccc(cc2Cl)[C@H]1O [Vancomycin]
- remaining activity at 100 µM (transferase enzyme; 100 μM test compound): ~50%
- % Inhibition [1]: 82%

Compound: Nisin
- % Enzyme Activity (transferase enzyme; 10 μg/ml test compound): ˜30%

Compound: Tunicamycin
- % Inhibition [2]: 104%

Source: patent US20030143635A1, “Assay for detection of transferase enzyme activity in drug screening” (AstraZeneca AB, priority 2000, published 2003)
